Data on five compounds can be found in patent US4390547A, “2,2-Dimethyl-3-(substituted ethyl)cyclopropane carboxylate pesticidal compositions and methods” (priority 1981, dated 1983).

Data set [1] concerns housefly (Musca domestica). The experiment in a line: Mortality test against houseflies by topical application (Test Example 1). The data set is classed as in vivo. Particulars: 24 h. As to the method: Each test compound was accurately weighed and a 1% solution and an 0.1% solution of the sample in acetone were prepared. A 1 μl portion of either of the above solutions was micropipetted onto the thoracic dorsal part of each female adult housefly (Musca domestica) under ether anaesthesia and the fly was released in a high-walled dish together with feed. The dish was covered with a metal-wire net and maintained at 25° C. After 24 hours, the test flies were inspected for deaths and the mortality (%) was calculated. Thirty test flies were used per concentration group.

The next data set has as its system guppies. The experiment in a line: Fish toxicity test (Test Example 4). Type of data set: in vivo. To be noted: concentration killing 50% of female guppies during 48 hours, 20° C.; [Mixture] = cis/trans 50/50. As to the method:
The mixture was stirred well to prepare a test water. Ten female guppies from 3 to 4 months of age were released into the test water and maintained at 20° C. The concentration of the test compound at which 50% of the guppies were killed during the ensuring 48 hours was determined. [This concentration is referred to as TLm (medium tolerance limit, ppm)].
A rank corresponds to TLm of not less than 10 ppm.
B rank corresponds to TLm of 0.5-10 ppm.
C rank corresponds to TLm of not more than 0.5 ppm.

Data set [2] can be described thus: Light stability test (Test Example 3). The data set is classed as physicochemical. To be noted: glass plate, uv light. As to the method:
Into 2.0 ml of acetone were dissolved 80 mg of each test compound. A 5 μl portion of the solution was taken and spread on a glass plate (Micro Standard Cover Glass, 18 m/m No. 1, 200 pcs, Matsunami Glass Ind., Ltd.) and the acetone was evaporated. The specimen was exposed to ultraviolet light from a fluorescent lamp (Tokyo Shibaura Electric Co., Ltd., FL20BL, glow-type, 100 V, 24.5 W, wavelength=3600 A) which was fixed just above the specimen at a distance of 11 cm at a temperature of 31°-35° C. for a predetermined exposure time. The test liquid was washed away with 1.0 ml of methanol containing 0.04% of dioctyl phthalate as an internal reference and high-speed liquid chromatography was carried out on the washings to determine the residual amount of the test compound.

The next data set relates to green rice leafhoppers. Briefly: Mortality of green rice leafhoppers on sprayed rice seedlings (Utility Example 1). Particulars: green rice leafhopper, in vivo, 24 h. As to the method:
(§1) To 30 parts of each of Compounds (1) to (38) were added 50 parts of xylene and 20 parts of Sorpol SM-200 (a surfactant, trademark of Toho Chemical Co., Ltd.). The mixture was stirred well and dissolved to obtain a 30% emulsifiable concentrate.
The emulsifiable concentrate prepared from Compounds (7), (11), (12), (15), (17), (21) and (22) [Each compound is a mixture of cis- and trans-isomer in a ratio of 50/50] in Formulation Example 5 were each diluted 300-fold with water. Then, each of the dilutions was sprayed over rice seedlings 25 days after sowing at the rate of 10 ml/pot. The pot was covered with a wire net and 15 green rice leafhoppers were released under the net. After 24 hours, the leafhoppers were examined for deaths. The mortality (%) was not less than 90% for each of Compounds (7), (11), (12), (15), (17), (21) and (22).

Data set [3] deals with common cabbage worms (Pieris rapae crucivora). To be noted: common cabbage worm, in vivo, 24 h. As to the method: as §1
The emulsifiable concentrate prepared from Compounds (7), (11) and (15) [Each compound is a mixture of cis- and trans-isomer in a ratio 20/80] in Formulation Example 5 were each diluted 1000-fold with water. Each of 15 common cabbage worms (Pieris rapae crucivora) per group were dipped into each of the dilutions for three seconds. Then, the worms were released on the leaves of the cabbage. After 24 hours, the worms were examined for deaths. The mortality (%) was not less than 90% for each of Compounds (7), (11) and (15).

For `C#CC(OC(=O)[C@@H]1[C@@H](CC(Cl)(Cl)Cl)C1(C)C)c1cccc(Oc2ccccc2)c1` (relative stereo) [(11) [Trans-isomer], 3-Phenoxy-α-ethynylbenzyl 2,2-dimethyl-3-(2,2,2-trichloroethyl)cyclopropanecarboxylate], in data set [1], the mortality (commonly the percentage killed) at 1 µg/fly is 100% and the mortality at 10 µg/fly turned out to be 100%. Also, the “TLm (medium tolerance limit)” value in the data set with guppies is recorded as “A (A rank corresponds to TLm of not less than 10 ppm.)”.
As for `C#CC(OC(=O)[C@@H]1[C@H](CC(C)(Cl)Cl)C1(C)C)c1cccc(Oc2ccccc2)c1` (relative stereo) [(13) [Cis-isomer], 3-Phenoxy-α-ethynylbenzyl 2,2-dimethyl-3-(2,2-dichloropropyl)cyclopropanecarboxylate], in data set [2], the amount remaining (commonly what is left of the initial amount, in per cent) at 3.5 h was determined as 100%; the amount remaining at 72 h was determined as 88%; the share remaining at 120 h is 73%. In the data set with guppies, the “TLm (medium tolerance limit)” value is “A (A rank corresponds to TLm of not less than 10 ppm.)”.
As for `CC1(C)C(CC(Cl)(Cl)Cl)C1C(=O)OC(C#N)c1cccc(Oc2ccc(Cl)cc2)c1` (stereo not drawn) [(15), 3-(4-Chlorophenoxy)-α-cyanobenzyl 2,2-dimethyl-3-(2,2,2-trichloroethyl)cyclopropanecarboxylate], the “mortality (%)” value (in the data set on green rice leafhoppers; in data set [3]) was “not less than 90%” in each case.
Take `CC1(C)C(CC(Cl)(Cl)Cl)C1C(=O)OC(C#N)c1cccc(Oc2ccccc2)c1` (stereo not drawn) [Compound (7), 3-Phenoxy-α-cyanobenzyl 2,2-dimethyl-3-(2,2,2-trichloroethyl)cyclopropanecarboxylate]: the “mortality (%)” value (in the data set on green rice leafhoppers; in data set [3]) was “not less than 90%” throughout.
`C#CC(OC(=O)C1C(CC(Cl)(Cl)Cl)C1(C)C)c1cccc(Oc2ccccc2)c1` (stereo not drawn) [Compound (11), 3-Phenoxy-α-ethynylbenzyl 2,2-dimethyl-3-(2,2,2-trichloroethyl)cyclopropanecarboxylate]: the “mortality (%)” value (in the data set on green rice leafhoppers; in data set [3]) was “not less than 90%” in each case.
